According to patent US20140179521A1, “COMPOSITIONS INCORPORATING HYTd” (Agrinos AS, priority 2012, published 2014):

Assays:
Assay type in all cases: in vivo
[1] = system: potato variety Maris Piper; test: Potato field experiment, tuber yield
Streptomyces scabies = test: Potato field experiment, expression of Streptomyces scabies; details: potato Maris Piper, field plots, treatment applied at planting
Rhizoctonia solani = test: Potato field experiment, expression of Rhizoctonia solani
Mildew = test: Small grain cereal replicated field experiments, mildew level / disease control; details: small grain cereals
small grain cereals = test: Small grain cereal replicated field experiments, grain yield; details: applied topically at growth stage 37
[2] = potato Maris Piper, field plots, treatment applied at planting
[3] = potatoes, in-furrow application, field observations

SMILES: CO/C=C(/C(=O)OC)c1ccccc1Oc1cc(Oc2ccccc2C#N)ncn1 [azoxystrobin]
- Yield t/ha [1, 2]: 62.17 t/ha
- effect on yield (in words) [1, 3]: little direct yield increase
- S. scabies (Streptomyces scabies): 46%
- R. solani (Rhizoctonia solani; [2]): 2%
- control of Rhizoctonia (in words) (Rhizoctonia solani; [3]): high level disease control
- disease control / period of disease suppression (in words) (Mildew): significant levels of disease control
- Mildew level 7 days after treatment (Mildew; 7 days after treatment): 4%
- Mildew level 21 days after treatment (Mildew; 21 days after treatment): 11%
- Yield t/ha (small grain cereals): 10.44 t/ha
